Results from patent US20260062422A1 (Halda Therapeutics OpCo, Inc., priority 2022, published 2026).

Legend:
[1] = system: T-Rex 293 cell line SC3 cells having increased expression of androgen receptor protein due to exposure to doxycycline; test: Cellular growth inhibition, T-Rex 293 SC3 cells with doxycycline (androgen receptor induced), CellTiter-Glo; assay type: cell-based; conditions: 72 h, T-Rex 293 SC3 cells with 10 ng/mL doxycycline (increased androgen receptor expression)
In short: (§1)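 With DMSO (0.5%) vehicle as negative control, compounds treated SC3 cells for 72 h in medium containing charcoal-dextran FBS ± doxycycline. This T-Rex 293 clone expresses transfected wild-type AR on induction. Readout: CellTiter-Glo 2.0; GI50 by nonlinear regression.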

BRD4-BD1 = molecular target: T1, BRD4-BD1 (Homo sapiens, UniProt O60885); test: bromoKdELECT assay for binding affinity to BRD4-BD1; conditions: Table 6
T1 construct: made in house; host or cells: T7 phage grown in an E. coli host derived from BL21
Procedure: (§2) Compounds were tested using a bromoKdELECT assay. T7 phage strains displaying bromodomains were grown in parallel in 24-well blocks in an E. coli host derived from the BL21 strain. E. coli were grown to log-phase and infected with T7 phage from a frozen stock (multiplicity of infection=0.4) and incubated with shaking at 32° C. until lysis (90-150 minutes). The lysates were centrifuged (5,000×g) and filtered (0.2 μm) to remove cell debris. Streptavidin-coated magnetic beads were treated with biotinylated small molecule or acetylated peptide ligands for 30 minutes at room temperature to generate affinity resins for bromodomain assays. The liganded beads were blocked with excess biotin and washed with blocking buffer (SeaBlock (Pierce), 1% BSA, 0.05% Tween 20, 1 mM DTT) to remove unbound ligand and to reduce nonspecific phage binding. Binding reactions were assembled by combining bromodomains, liganded affinity beads, and test compounds in 1× binding buffer (17% SeaBlock, 0.33×PBS, 0.04% Tween 20, 0.02% BSA, 0.004% Sodium azide, 7.4 mM DTT). Test compounds were prepared as 1000× stocks in 100% DMSO. Kds were determined using an 11-point 3-fold compound dilution series with one DMSO control point. All compounds for Kd measurements are distributed by acoustic transfer (non-contact dispensing) in 100% DMSO. The compounds were then diluted directly into the assays such that the final concentration of DMSO was 0.09%. All reactions performed in polypropylene 384-well plates. Each was a final volume of 0.02 ml. The assay plates were incubated at room temperature with shaking for 1 hour and the affinity beads were washed with wash buffer (1×PBS, 0.05% Tween 20). The beads were then resuspended in elution buffer (1×PBS, 0.05% Tween 20, 2 M non-biotinylated affinity ligand) and incubated at room temperature with shaking for 30 minutes. The bromodomain concentration in the eluates was measured by qPCR.

androgen receptor = molecular target: T2, androgen receptor (Homo sapiens, UniProt P10275); test: Assay for binding affinity to androgen receptor ([3H]methyltrienolone radioligand, cell cytosol); conditions: 1 nM [3H]methyltrienolone, 24 hours at 4° C., Table 5
T2 sequence (P10275 1-920 T878A): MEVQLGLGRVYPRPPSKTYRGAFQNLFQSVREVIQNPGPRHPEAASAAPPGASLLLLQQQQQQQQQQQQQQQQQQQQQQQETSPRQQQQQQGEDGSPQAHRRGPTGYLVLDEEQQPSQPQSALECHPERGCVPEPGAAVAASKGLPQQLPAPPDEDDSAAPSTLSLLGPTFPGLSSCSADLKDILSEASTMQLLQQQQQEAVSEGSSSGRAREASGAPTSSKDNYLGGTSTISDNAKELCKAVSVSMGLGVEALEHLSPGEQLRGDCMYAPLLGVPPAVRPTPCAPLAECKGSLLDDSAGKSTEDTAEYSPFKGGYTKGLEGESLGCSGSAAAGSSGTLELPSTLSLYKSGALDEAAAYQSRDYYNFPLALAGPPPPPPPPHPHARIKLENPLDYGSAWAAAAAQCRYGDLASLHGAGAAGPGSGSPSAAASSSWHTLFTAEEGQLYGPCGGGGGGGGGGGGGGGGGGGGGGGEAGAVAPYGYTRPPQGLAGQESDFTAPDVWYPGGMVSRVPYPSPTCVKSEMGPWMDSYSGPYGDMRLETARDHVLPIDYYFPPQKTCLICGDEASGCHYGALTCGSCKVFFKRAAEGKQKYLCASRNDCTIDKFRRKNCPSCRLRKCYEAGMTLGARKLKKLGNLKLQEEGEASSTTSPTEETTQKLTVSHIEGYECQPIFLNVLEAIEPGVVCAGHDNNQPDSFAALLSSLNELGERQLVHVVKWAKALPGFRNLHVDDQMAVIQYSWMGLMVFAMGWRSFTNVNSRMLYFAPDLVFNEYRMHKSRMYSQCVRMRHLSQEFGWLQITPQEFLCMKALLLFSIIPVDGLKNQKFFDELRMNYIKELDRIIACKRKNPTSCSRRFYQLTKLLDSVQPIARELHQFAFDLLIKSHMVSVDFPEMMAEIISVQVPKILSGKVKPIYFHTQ
Procedure: Fractions of cell cytosol ([…] cell/point) were incubated for 24 hours at 4° C. with 1 nM [^3H]methyltrienolone in the absence or presence of the test compound in a buffer containing 25 mM Hepes-Tris (pH 7.4), 1 mM EDTA, 10 mM Na2MoO4, 2 mM DTT, 5 μM triamcinolone acetonide, and 10% glycerol. Nonspecific binding was determined in the presence of 1 μM testosterone. Following incubation, the samples were filtered rapidly under vacuum through glass fiber filters (GF/B, Packard) presoaked with 0.3% PEI and rinsed several times with ice-cold 50 mM Tris-HCl using a 96-sample cell harvester (Unifilter, Packard). The filters were dried then counted for radioactivity in a scintillation counter (Topcount, Packard) using a scintillation cocktail (Microscint 0, Packard). The results are expressed as a percent inhibition of the control radioligand specific binding. The standard reference compound is testosterone, which is tested in each experiment at several concentrations to obtain a competition curve from which its IC50 is calculated.

[2] = system: T-Rex 293 cell line SC3 cells lacking increased expression of androgen receptor protein; test: Cellular growth inhibition, T-Rex 293 SC3 cells without doxycycline, CellTiter-Glo; assay type: cell-based; conditions: 72 h, T-Rex 293 SC3 cells not exposed to doxycycline, CellTiter-Glo 2.0
In short: as §1

BRD4-BD2 = molecular target: T3, BRD4-BD2 (Homo sapiens, UniProt O60885); test: bromoKdELECT assay for binding affinity to BRD4-BD2; conditions: Table 7
T3 construct: made in house; host or cells: T7 phage grown in an E. coli host derived from BL21
Procedure: as §2, with “2 μM” for “2 M”

[3] = molecular target: T4, progesterone receptor ligand binding domain (LBD) (Homo sapiens, UniProt P06401); test: FP assay (PolarScreen Progesterone Receptor Competitor Assay) for binding to progesterone receptor LBD; conditions: GST-tagged PR LBD, Fluormone tracer, fluorescence polarization, 2 hours; Table 17
T4 construct: GST-tagged PR LBD, Fluormone tracer, and compound were mixed; purchased Life Technologies A15905 or a15906
T4 sequence (P06401 679-913 limits assumed): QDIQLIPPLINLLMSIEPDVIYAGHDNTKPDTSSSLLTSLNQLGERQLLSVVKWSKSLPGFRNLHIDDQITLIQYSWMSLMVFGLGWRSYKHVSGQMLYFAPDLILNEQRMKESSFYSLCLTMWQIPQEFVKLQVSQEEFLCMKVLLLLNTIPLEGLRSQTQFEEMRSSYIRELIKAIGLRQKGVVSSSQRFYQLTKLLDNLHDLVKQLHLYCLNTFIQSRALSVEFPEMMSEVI
Procedure: Compounds were tested using the PolarScreen™ Progesterone Receptor Competitor Assay Kit (Life Technologies Cat #A15905 or a15906), as per the manufacturer's instructions. Briefly, GST-tagged PR LBD, Fluormone tracer, and compound were mixed and incubated for 2 hours at room temperature in the dark. Following incubation, the plates were spun at 3000×g for 30 seconds, then sealed with an optical adhesive cover, and fluorescence polarization was measured using appropriate excitation and emission filters with an EnVision Plate Reader (Perkin Elmer). Compound concentration vs. mP value were plotted in Prism (GraphPad). A four-parameter non-linear regression curve fit was applied to dose-response data to determine the half-maximal inhibitory concentration (IC50) for each test compound.

VCaP cells = test: Cellular growth inhibition assay for VCaP cells, CellTiter-Glo; assay type: cell-based, human; conditions: Homo sapiens, VCaP, 72 h, 72 hours treatment, CellTiter-Glo 2.0
In short: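 GI50 values come from four-parameter curve fits of luminescence data normalized to a zero baseline. Compound, in medium with 0.5% DMSO, was added one day after plating and left for 72 h before CellTiter-Glo 2.0 addition.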

T47D cells = test: Cellular growth inhibition assay for T47D cells, CellTiter-Glo; assay type: cell-based, human; conditions: Homo sapiens, T47D, 72 h, 72 hours treatment, CellTiter-Glo 2.0 cell viability
In short: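 Cells are plated at 3000/well and allowed 24 h before treatment. Test compound in medium containing 0.5% DMSO is then added, with DMSO-only wells as negative control, and plates are incubated 72 h at 37 °C. ATP luminescence (CellTiter-Glo 2.0) is then fitted to four parameters to derive GI50.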

progesterone receptor = molecular target: T5, progesterone receptor (Homo sapiens, UniProt P06401); test: PR Human Progesterone NHR Binding (Agonist Radioligand) Assay, T47D cytosol; conditions: T47D cytosolic fractions, 0.5 nM [3H]progesterone, 1 hour at 4° C., Table 16
T5 construct: host or cells: T47D cells (cytosolic fraction)
T5 sequence (P06401 1-933): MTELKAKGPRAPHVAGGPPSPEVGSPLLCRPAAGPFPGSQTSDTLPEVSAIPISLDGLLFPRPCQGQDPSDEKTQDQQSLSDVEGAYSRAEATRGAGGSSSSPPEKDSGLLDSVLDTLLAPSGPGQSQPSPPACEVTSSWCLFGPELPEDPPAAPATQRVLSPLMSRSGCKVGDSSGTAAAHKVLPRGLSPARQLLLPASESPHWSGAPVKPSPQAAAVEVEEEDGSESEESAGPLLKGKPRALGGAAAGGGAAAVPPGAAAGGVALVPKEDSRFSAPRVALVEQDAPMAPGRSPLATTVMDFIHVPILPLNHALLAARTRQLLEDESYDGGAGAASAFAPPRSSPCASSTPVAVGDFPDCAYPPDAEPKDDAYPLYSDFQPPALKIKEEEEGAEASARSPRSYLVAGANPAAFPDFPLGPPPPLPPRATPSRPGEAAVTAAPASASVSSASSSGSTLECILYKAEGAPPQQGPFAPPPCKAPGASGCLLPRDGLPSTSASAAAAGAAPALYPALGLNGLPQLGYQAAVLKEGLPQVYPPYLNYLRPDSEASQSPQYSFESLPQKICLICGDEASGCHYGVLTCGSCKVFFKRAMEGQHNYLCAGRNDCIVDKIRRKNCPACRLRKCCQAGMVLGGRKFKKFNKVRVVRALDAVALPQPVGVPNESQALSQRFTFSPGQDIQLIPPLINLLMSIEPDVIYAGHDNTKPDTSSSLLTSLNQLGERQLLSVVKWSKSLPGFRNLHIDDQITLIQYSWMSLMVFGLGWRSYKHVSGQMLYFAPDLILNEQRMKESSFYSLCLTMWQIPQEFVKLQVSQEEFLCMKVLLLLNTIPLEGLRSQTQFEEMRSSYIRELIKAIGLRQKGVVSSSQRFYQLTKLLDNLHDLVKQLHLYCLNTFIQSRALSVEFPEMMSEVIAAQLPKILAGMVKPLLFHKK
Procedure: Compounds were tested using the PR Human Progesterone NHR Binding (Agonist Radioligand) Assay, Cerep at Eurofins Discovery using a modified version of the protocol from Sarup et al. (Cancer Res 1988; 48:5071-5078). Briefly, cytosolic fractions of T47D cells were incubated with 0.5 nM [^3H]progesterone for 1 hour at 4° C. in the absence or presence of the test compound. Nonspecific binding was determined in the presence of 1 μM promegestone. Reactions were subjected to scintillation counting. Results are expressed as a percent inhibition of the control radioligand specific binding.

Row | Compound | GI50 [1] | Kd (BRD4-BD1) | Kd (androgen receptor) | GI50 [2] | Kd (BRD4-BD2) | IC50 [3] | GI50 (VCaP cells) | GI50 (T47D cells) | Ki (progesterone receptor)
1 | Cc1sc2c(c1C)C(c1ccc(Cl)cc1)=N[C@@H](CC(=O)NCCOCCOCCOC1CCCN(c3ncc(C(=O)N[C@H]4C(C)(C)[C@H](Oc5ccc(C#N)c(Cl)c5)C4(C)C)cn3)C1)c1nnc(C)n1-2 (some centres unmarked) [Compound I-15] | < 500 nM | 500 to 2500 nM | < 50 nM | 1500 to 3000 nM | – | – | – | – | –
2 | Cc1sc2c(c1C)C(c1ccc(Cl)cc1)=N[C@@H](CC(=O)NCCOCCOCCOC1CCN(c3ncc(C(=O)N[C@H]4C(C)(C)[C@H](Oc5ccc(C#N)c(Cl)c5)C4(C)C)cn3)C1)c1nnc(C)n1-2 (some centres unmarked) [Compound I-16] | < 500 nM | 500 to 2500 nM | – | 1500 to 3000 nM | < 50 nM | – | – | – | –
3 | Cc1sc2c(c1C)C(c1ccc(CCCOC3CCN(c4ncc5c(n4)CN([C@H]4C(C)(C)[C@H](Oc6ccc(C#N)c(Cl)c6)C4(C)C)C5=O)CC3)cc1)=NC(Cc1ncco1)c1nnc(C)n1-2 (some centres unmarked) [Compound I-134] | – | – | – | – | – | 50 to 500 nM | < 500 nM | 500 to 1500 nM | –
4 | Cc1sc2c(c1C)C(c1ccc(N3CC(CC4CN(c5cnc(C(=O)N[C@H]6C(C)(C)[C@H](Oc7ccc(C#N)c(Cl)c7)C6(C)C)cn5)C4)C3)cc1)=N[C@@H](C)c1nnc(C)n1-2 [Compound I-503] | – | – | 50 to 500 nM | – | – | – | – | < 500 nM | < 50 nM
